Non-standard residues stand in square brackets, D forms with d. Residues, ends and D or L forms follow the SMILES beside them. Nle = CCCC[C@H](N)C(=O)O
Experiments:
[1] = tested on: human Rhinovirus in primary nasal cells; experiment: Peptidomimetic screen in human nasal cells: RV infectivity (RT-PCR); format: cell-based; conditions: for RV infectivity / RV inhibition activity: RV MOI 0.1 for 4 hrs, then compound for 48 hrs, triplicate, RT-PCR (FIG. 10 top panel)
Source text: (§1) Top panel, RV infectivity; middle panel, IFN-lamda; bottom panel, TNF-alpha levels. All determined by RT-PCR.
(§2) CC16-derived peptidomimetics provide protection against human Rhinovirus infection in airway epithelial cells. Preliminary studies were done in primary nasal cells grown at an ALI. Transwell cells were challenged with RV ([…] (MOI) 0.1) for 4 hrs, after which external RV was washed from the cell surface and test compounds added; uninfected baseline controls will be treated the same by pipetting media. Cells are allowed to incubate for an additional 48 hrs. Three readouts were used for analysis in this screen: RV infectivity, INF-lambda induction, and TNF-alpha induction. An optimal compound for this screening will have a reduction in RV infection, maintain high levels of INF-lambda, and have low levels of TNF-alpha.
(§3) RV burden, INF-lambda, and TNF-alpha are assessed by RT-PCR. Those compounds moving forward will be tested in a dose-response to determine optimal concentrations needed for IC50.

[2] = tested on: INF-lambda; experiment: Peptidomimetic screen in human nasal cells: INF-lambda induction (RT-PCR); format: cell-based; conditions: 2.5 μM; RV MOI 0.1 for 4 hrs, then compound for 48 hrs; RT-PCR (FIG. 10 middle panel)
Source text: as §1, §2, §3

[3] = tested on: RV in primary human nasal epithelial cells (HNECs); experiment: RV infection in primary human nasal epithelial cells (HNECs) at ALI, post-infection treatment (qPCR); format: cell-based; conditions: 25 g/ml (so in the source); added after 4 hrs RV infection, 48 hrs incubation; non-asthma participants; p<0.01 by ANOVA (FIG. 6)
Procedure: Cells were grown at ALI for 3 weeks and infected with RV for 4 hours, after which they were washed and allowed to incubate for 48 hours with or without rCC16 or C836. RV was determined by qPCR. Each dot is a technical replicate, ** p<0.01 by ANOVA.
rCC16 and CC16-derived peptidomimetics reduce RV infection in human nasal cells. In order to test if rCC16 added exogenously could protect against RV viral infection, primary human nasal epithelial cells (HNECs) were grown from non-asthma participants at an air-liquid interface (ALI) for 21 days. On the day of infection, RV was added to the apical surface and allowed to incubate for 4 hrs, after which cells were gently washed with media, and either media alone, rCC16 (25 g/ml), or CC16-derived peptidomimetic, C836 (25 g/ml), were added and cells allowed to incubate for an additional 48 hrs. After harvest, RV infectivity was determined by PCR for RV.

[4] = tested on: house dust mite (HDM) allergic airway disease; neutrophils in lavage fluid; experiment: Neutrophil recruitment into the lung in HDM model, IV treatment; format: in vivo, mice; conditions: IV 2 hrs after each HDM challenge; lavage fluid 24 hrs after last HDM challenge; preliminary (FIG. 8 left)
Procedure: (§4) Left panel, C836, was delivered via IV 2 hrs after each HDM challenge. Cells in the lavage fluid were measured 24 hrs after the last HDM challenge. Right panel, baseline lung function, without methacholine provocation, as assessed in the mice receiving C836 IV, 24 hrs after the last HDM challenge. ** p<0.01, **** p<0.0001 by ANOVA.
Thus, a small peptidomimetic was designed based on the newly discovered LVD (leucine-valine-aspartic acid) integrin binding domain contained within the CC16 protein. The lead compound, C836, is a 17-mer containing the LVD integrin binding domain. […] Neutrophils, when present in the lungs of individuals with asthma, are typically associated with more severe and difficult to treat forms of the condition. In COPD, neutrophils are often highly destructive, releasing factors and enzymes that degrade the basement membrane and damage the delicate airway epithelium. Therefore, strategies to reduce neutrophil accumulation or activity in both asthma and COPD would provide significant benefits for overall lung health, potentially improving disease outcomes and reducing airway damage.

[5] = tested on: lung function in HDM-treated mice; experiment: Baseline lung function (FEV0.2, invasive PFT) without methacholine provocation in HDM-treated mice; format: in vivo; conditions: IV, 24 hrs after last HDM challenge (FIG. 8 right)
Procedure: as §4
Lung function tests are typically performed using methacholine provocation, which induces bronchoconstriction. However, the tests referenced here were conducted without provocation, meaning that when C836 was administered alongside an HDM challenge, it prevented the loss of lung function typically associated with HDM exposure. These tests were conducted at baseline, without the use of a bronchoconstrictor, similar to an asthma patient living a normal day without an attack.

[6] = tested on: airway hyperresponsiveness (AHR); experiment: Airway hyperresponsiveness (AHR) to methacholine in HDM-exposed Cc16^−/− mice (flexiVent); format: in vivo; conditions: oropharyngeal, approximately 1 hr after each HDM dose on days 0, 7, 14; methacholine 24 hrs after last HDM; p<0.05 at the highest dose (FIG. 9)
Procedure: C836 was delivered to the airways 2 hrs after each HDM challenge. AHR to methacholine was assessed 24 hrs after the last HDM challenge. * p<0.05 at the highest dose.
C836 reduces AHR in Cc16^−/− mice exposed to HDM. The activity of C836 was tested for its ability to provide protection in the allergic airway model induced by exposure to HDM. For this, CC16^−/− mice were used, and the C836 (or vehicle control) was delivered to the airway via the oropharyngeal method approximately 1 hr after each HDM dose on days 0, 7, and 14. Mice were assessed 24 hrs after the last HDM challenge by flexi Vent® and methacholine challenge.

[7] = tested on: TNF-alpha; experiment: Peptidomimetic screen in human nasal cells: TNF-alpha induction (RT-PCR); format: cell-based; conditions: 2.5 μM; RV MOI 0.1 for 4 hrs, then compound for 48 hrs; RT-PCR (FIG. 10 bottom panel)
Source text: as §1, §2, §3

[8] = tested on: human Rhinovirus (RV; RVIB); experiment: RV burden in CC16^−/− mice given rCC16 (RT-PCR); format: in vivo; conditions: female CC16^−/− mice; RV 4×10^7 PFU/50 μl intranasal; rCC16 given at time of infection; RT-PCR at 48 hrs; p<0.05 by t-test (FIG. 4)
Procedure: RT-PCR at 48 hrs. * p<0.05 by t-test.
rCC16 treatment decreases human Rhinovirus (RV; RVIB) burden in CC16^−/− mice: For these studies, female mice were infected with RV (4×10^7 plaque-forming unit (PFU)/50 μl) via intranasal instillation for 48 hrs, and mice were either given vehicle (saline) or rCC16 (human recombinant CC16) at the time of infection.

[9] = tested on: airway hyperresponsiveness and respiratory infections; experiment: rCC16 delivered intravenously (retro-orbital) or oropharyngeally: airway hyperresponsiveness and respiratory infections; format: in vivo; conditions: IV via retro-orbital injection or oropharyngeal delivery (both)
Source text: (§5) In the examples provided below, human recombinant CC16 (rCC16) was delivered either intravenously (IV) via retro-orbital injection or directly to the lungs through oropharyngeal delivery.

[10] = tested on: leukocyte recruitment into the lungs; experiment: rCC16 delivered intravenously or oropharyngeally: leukocyte recruitment into the lungs; format: in vivo; conditions: only intravenous delivery
Source text: as §5

[11] = tested on: respiratory challenges; conditions: direct delivery; cited from earlier work

Molecule: CCCC[C@H](NC(=O)[C@H](CC(=O)O)NC(=O)[C@H](CCC(N)=O)NC(=O)[C@H](CC(=O)O)NC(C)=O)C(=O)N[C@@H](CCCNC(=N)N)C(=O)N[C@@H](CCC(=O)O)C(=O)N[C@@H](C)C(=O)NCC(=O)N[C@@H](C)C(=O)N[C@@H](CCC(N)=O)C(=O)N[C@@H](CC(C)C)C(=O)N[C@@H](CCCCN)C(=O)N[C@@H](CCCCN)C(=O)N[C@@H](CC(C)C)C(=O)N[C@H](C(=O)N[C@@H](CC(=O)O)C(=O)O)C(C)C [Compound 970, Ac-Asp-Gln-Asp-Nle-Arg-Glu-Ala-Gly-Ala-Gln-Leu-Lys-Lys-Leu-Val-Asp-OH] (Ac-DQD[Nle]REAGAQLKKLVD-OH)
- RV infectivity / RV inhibition activity ([1]; 2.5 μM): had RV inhibition activity

Molecule: CCCC[C@H](NC(=O)[C@H](CC(=O)O)NC(=O)[C@H](CCC(N)=O)NC(=O)[C@H](CC(=O)O)NC(C)=O)C(=O)N[C@@H](CCCNC(=N)N)C(=O)N[C@@H](CCC(=O)O)C(=O)N[C@@H](C)C(=O)NCC(=O)N[C@@H](C)C(=O)N[C@@H](CCC(N)=O)C(=O)N[C@@H](CC(C)C)C(=O)N[C@@H](CCCCN)C(=O)N[C@@H](CCCCN)C(=O)N[C@@H](CC(C)C)C(=O)N[C@H](C(N)=O)C(C)C [Compound 971, Ac-Asp-Gln-Asp-Nle-Arg-Glu-Ala-Gly-Ala-Gln-Leu-Lys-Lys-Leu-Val-NH2] (Ac-DQD[Nle]REAGAQLKKLV-NH2)
- RV infectivity / RV inhibition activity ([1]; 2.5 μM): had RV inhibition activity

Molecule: CCCC[C@H](NC(=O)[C@H](CC(=O)O)NC(=O)[C@H](CCC(N)=O)NC(C)=O)C(=O)N[C@@H](CCCNC(=N)N)C(=O)N[C@@H](CCC(=O)O)C(=O)N[C@@H](C)C(=O)NCC(=O)N[C@@H](C)C(=O)N[C@@H](CCC(N)=O)C(=O)N[C@@H](CC(C)C)C(=O)N[C@@H](CCCCN)C(=O)N[C@@H](CCCCN)C(=O)N[C@@H](CC(C)C)C(=O)N[C@H](C(=O)N[C@@H](CC(=O)O)C(=O)N[C@H](C(N)=O)[C@@H](C)O)C(C)C [Compound 972, Ac-Gln-Asp-Nle-Arg-Glu-Ala-Gly-Ala-Gln-Leu-Lys-Lys-Leu-Val-Asp-Thr-NH2] (Ac-QD[Nle]REAGAQLKKLVDT-NH2)
- RV infectivity / RV inhibition activity ([1]; 2.5 μM): had RV inhibition activity
- overall outcome of the screen for the 3 factors (RV infectivity, INF-lambda, TNF-alpha) ([1]; 2.5 μM, RV-infected nasal cells): best candidate to move forward
- INF-lambda levels [2]: maintain INF-lambda levels

Molecule: CCCC[C@H](NC(=O)[C@H](CC(=O)O)NC(=O)[C@H](CCC(N)=O)NC(=O)[C@H](CC(=O)O)NC(C)=O)C(=O)N[C@@H](CCCNC(=N)N)C(=O)N[C@@H](CCC(=O)O)C(=O)N[C@@H](C)C(=O)NCC(=O)N[C@@H](C)C(=O)N[C@@H](CCC(N)=O)C(=O)N[C@@H](CC(C)C)C(=O)N[C@@H](CCCCN)C(=O)N[C@@H](CCCCN)C(=O)N[C@@H](CC(C)C)C(=O)N[C@H](C(=O)N[C@@H](CC(=O)O)C(=O)N[C@H](C(N)=O)[C@@H](C)O)C(C)C [Compound C836, DQD-Nle-REAGAQLKKLVDT] (Ac-DQD[Nle]REAGAQLKKLVDT-NH2)
- reduction of RV infection in human nasal cells [3]: approximately 80%
- neutrophils recruited into the lung during HDM challenge [4]: fewer neutrophils are recruited into the lung
- loss of lung function as measured by FEV0.2 [5]: protective from loss of lung function
- airway hyperresponsiveness (AHR) compared to HDM-treated given vehicle [6]: significantly lower airway hyperresponsiveness (AHR)
- RV infectivity / RV inhibition activity ([1]; 2.5 μM): have activity in reducing RV infectivity

Molecule: Ac-Nle-Arg-Glu-Ala-Gly-Ala-Gln-Leu-Lys-Lys-Leu-Val-Asp-Thr-NH2 (Ac-[Nle]REAGAQLKKLVDT-NH2; SMILES CCCC[C@H](NC(C)=O)C(=O)N[C@@H](CCCNC(=N)N)C(=O)N[C@@H](CCC(=O)O)C(=O)N[C@@H](C)C(=O)NCC(=O)N[C@@H](C)C(=O)N[C@@H](CCC(N)=O)C(=O)N[C@@H](CC(C)C)C(=O)N[C@@H](CCCCN)C(=O)N[C@@H](CCCCN)C(=O)N[C@@H](CC(C)C)C(=O)N[C@H](C(=O)N[C@@H](CC(=O)O)C(=O)N[C@H](C(N)=O)[C@@H](C)O)C(C)C) [Compound 974]
- RV infectivity / RV inhibition activity ([1]; 2.5 μM): had RV inhibition activity
- INF-lambda levels [2]: maintain INF-lambda levels
- TNF-alpha levels [7]: has a spike in TNF-alpha

B1: rCC16: human recombinant CC16 (club cell secretory protein) (protein, UniProt P11684 22-91, looked up)
Uteroglobin: EICPSFQRVIETLLMDTPSSYEAAMELFSPDQDMREAGAQLKKLVDTLPQKPRESIIKLMEKIAQSSLCN
- RV burden compared to vehicle-treated mice [8]: significant reduction in RV
- reduction of RV infection in human nasal cells [3]: approximately 80%
- IC50 ([1]; rCC16, RV infection of nasal cells, read-out: dose found to be optimal to inhibit 50% of infection): 2500 nM
- protection against airway hyperresponsiveness and respiratory infections [9]: effective in providing protection
- leukocyte recruitment into the lungs [10]: reduce leukocyte recruitment into the lungs
- protection during respiratory challenges [11]: protective

B2: rCC16 made at UA (MJ): standard control, rCC16 made at UA (MJ) (protein, UniProt P11684 22-91, looked up)
Uteroglobin: B1 Uteroglobin
- RV infectivity / RV inhibition activity ([1]; 2.5 μM): have activity in reducing RV infectivity

B3: rCC16 from R&D: standard control, rCC16 from R&D (protein, UniProt P11684 22-91, looked up)
Uteroglobin: B1 Uteroglobin
- RV infectivity / RV inhibition activity ([1]; 2.5 μM): have activity in reducing RV infectivity
